pEC50, pIC50: −log10 of the molar value. Read-outs that look alike come from different tables or passages of the source.
What was measured:
[1] = test system: HIV-1 wild-type reference strain NL4-3; assay: HIV-1 phenotypic assay, MT-2 cells then TZM-bl cells, luciferase; assay type: cell-based; conditions: Human immunodeficiency virus 1, NL43; first cycle in MT-2 cells, additional round in TZM-bl cells
[2] = biological target: T1, DDX3 Helicase (Homo sapiens, UniProt O00571); assay: biochemical
[3] = test system: HIV (PBMC); assay: HIV infectious cell culture system in PBMC, HIV-1 RNA in supernatant; conditions: Human immunodeficiency virus 1, PBMC, 72 h, read-out: EC50 HIV (PBMC) 72 h
[4] = Cytotoxicity, MTT method in LUNET cells; assay type: cell-based; conditions: human; MMT method in LUNET cells; read-out: CC50 (μM) non-infected cells
Procedure: Toxicity (CC50) was analysed in the Lunet/HuH7 cells by the addition of 10 μL of MTT (3-(4,5-dimethylthiazol-2-yl)-2,5-diphenyltetrazolium bromide) per well. After 4 h of incubation at 37° C. in a humidified atmosphere with 5% CO2, the amount of formazan produced was quantified spectrophotometrically at 550/620 nm (C. Pannecouque et al, Nature protocol 2008; 3 (3): 427-434). […] These assays were done in duplicate.

[5] = Cytotoxicity in PBMC, CellTiter 96 MTS viability assay; assay type: cell-based; conditions: human, human primary PBMCs
[6] = test system: Hepatitis C Virus (HCV) replicon system; assay: HCV replicon system, luciferase method in LucUbiNeo-ET cells; conditions: for EC50: Hepatitis C virus, 48 h, read-out: EC50 (μM) HCV replicon system
[7] = biological target: T1, DDX3 Helicase; conditions: for IC50: read-out: ID50 (μM) against DDX3 Helicase, n.a. = compound not active
[8] = test system: EBOV expressing GFP (EBOV/GFP); assay type: cell-based, Ebola virus
[9] = Cytotoxicity in the JEV cell culture system; conditions: hamster
[10] = test system: JEV strain (NJ2008); assay: JEV infectious cell culture system, plaque formation assay in BHK-21 cells; conditions: Japanese encephalitis virus, BHK-21, read-out: JEV EC50
[11] = Cytotoxicity in Huh7 cells, nuclei counts; conditions: human
[12] = Parallel Artificial Membrane Permeability Assay (PAMPA); assay type: in vitro ADME; conditions: for Papp at 5 h, 0.5 mM: PAMPA, phosphatidylcholine in dodecane, pH 7.4, 5 h, room temperature, read-out: PAMPA Papp *10^−6 (cm/s) GI; for PAMPA membrane retention (RM %): value in brackets in the PAMPA cell
Procedure: Parallel Artificial Membrane Permeability Assay (PAMPA). Donor solution (0.5 mM) was prepared by diluting 1 mM dimethylsulfoxide (DMSO) compound stock solution using phosphate buffer (pH 7.4, 0.025 M). Filters were coated with 5 μL of a 1% (w/v) dodecane solution of phosphatidylcholine prepared from CHCl3 solution 10% w/v, for intestinal permeability. Donor solution (150 μL) was added to each well of the filter plate. To each well of the acceptor plate were added […] (50% DMSO in phosphate buffer). All compounds were tested in three different plates on different days. The sandwich was incubated for 5 h at room temperature under gentle shaking. After the incubation time, the plates were separated, and samples were taken from both receiver and donor sides and analyzed using LC with UV detection at 280 nm.
LC analysis were performed with a Varian Prostar HPLC system (Varian Analytical Instruments, USA) equipped with a binary pump with a manual injection valve and model Prostar 325 UV-VIS Detector.
Permeability (Papp) for PAMPA was calculated according to the following equation, obtained from Wohnsland and Faller and Sugano et al. equation with some modification in order to obtain permeability values in cm s^−1,
where VA is the volume in the acceptor well, VD is the volume in the donor well (cm^3), A is the “effective area” of the membrane (cm^2), t is the incubation time (s) and r the ratio between drug concentration in the acceptor and equilibrium concentration of the drug in the total volume (VD+VA). Drug concentration is estimated by using the peak area integration.
Membrane retentions (%) were calculated according to the following equation: […]
where r is the ratio between drug concentration in the acceptor and equilibrium concentration, D, A, and Eq represented drug concentration in the donor, acceptor and equilibrium solution, respectively.

[13] = Water Solubility Assay; assay type: physicochemical; conditions: thermodynamic from solid
Procedure: Water Solubility Assay. Each solid compound (1 mg) was added to 1 mL of water. The samples were shaked in a shaker bath at room temperature for 24-36 h. The suspensions were filtered through a 0.45 μm nylon filter (Acrodisc), and the solubilized compound determined by LC-MS-MS assay. For each compound the determination was performed in triplicate.
For the quantification was used an LC-MS system consisted of a Varian apparatus (Varian Inc) including a vacuum solvent degassing unit, two pumps (212-LC), a Triple Quadrupole MSD (Mod. 320-LC) mass spectrometer with ES interface and Varian MS Workstation System Control Vers. 6.9 software. […] The flow rate was 0.2 mL min^−1 and injection volume was 5 μL. The instrument operated in positive mode and parameters were: detector 1850 V, drying gas pressure 25.0 psi, desolvation temperature 300.0° C., nebulizing gas 40.0 psi, needle 5000 V and shield 600 V. Nitrogen was used as nebulizer gas and drying gas. Collision induced dissociation was performed using Argon as the collision gas at a pressure of 1.8 mTorr in the collision cell.

[14] = test system: human liver microsome (HLM); assay: Microsomal Stability Assay; conditions: human liver microsomes, 37 °C, 60 min, compound 50 μM; percentage of not metabolized compound
[15] = experimental aqueous solubility, read-out: LogS (converted)
[16] = room temperature, 24-36 h, read-out: Aq. Solub.

T1 sequence (O00571 whole entry): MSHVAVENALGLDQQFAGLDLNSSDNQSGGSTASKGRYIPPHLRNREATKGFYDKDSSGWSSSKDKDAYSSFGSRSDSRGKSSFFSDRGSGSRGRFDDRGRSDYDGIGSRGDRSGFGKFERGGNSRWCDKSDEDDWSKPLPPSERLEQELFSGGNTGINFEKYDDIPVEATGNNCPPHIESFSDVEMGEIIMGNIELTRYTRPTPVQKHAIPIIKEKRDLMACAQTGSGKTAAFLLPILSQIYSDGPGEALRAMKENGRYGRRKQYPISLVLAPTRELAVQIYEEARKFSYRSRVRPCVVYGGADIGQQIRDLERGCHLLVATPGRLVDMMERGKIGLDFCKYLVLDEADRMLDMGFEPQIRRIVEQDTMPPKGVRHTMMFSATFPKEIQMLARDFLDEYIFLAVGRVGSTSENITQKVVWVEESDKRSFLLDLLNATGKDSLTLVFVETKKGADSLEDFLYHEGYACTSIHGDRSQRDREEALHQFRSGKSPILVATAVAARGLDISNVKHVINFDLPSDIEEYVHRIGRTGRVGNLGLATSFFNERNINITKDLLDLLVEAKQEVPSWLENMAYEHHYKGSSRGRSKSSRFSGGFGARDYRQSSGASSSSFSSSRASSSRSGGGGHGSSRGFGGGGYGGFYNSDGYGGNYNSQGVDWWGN

Structure (SMILES): COc1cc(NC(=O)Nc2ccccc2C(F)(F)F)ccc1-n1cc(CCC(C)C)nn1 [Compound 80, 1-(4-(4-isopentyl-1H-1,2,3-triazol-1-yl)-3-methoxyphenyl)-3-(2-(trifluoromethyl)phenyl)urea]
- pEC50 [1]: 5.13
- pIC50 [2]: 6.40

Structure (SMILES): CCOCc1cn(-c2cccc(S(=O)(=O)Nc3ccccc3C(F)(F)F)c2)nn1 [Compound 66d, 3-(4-(ethoxymethyl)-1H-1,2,3-triazol-1-yl)-N-(2-(trifluoromethyl)phenyl) benzenesulfonamide]
- pEC50 [3]: 4.59
- CC50 [4]: 58.6 µM
- CC50 at 24 h [5]: 450 µM
- CC50 at 48 h [5]: 357 µM
- CC50 at 72 h [5]: 703 µM
- EC50 [6]: > 58.6 µM
- IC50 [7]: 0.4 µM
- Normalized % infected cells [8]: 80%
- effect on EBOV replication, in words [8]: able to affect EBOV replication
- CC50 [9]: > 50 µM
- pEC50 [10]: 5.21

Structure (SMILES): O=[N+]([O-])c1cccc(S(=O)(=O)Nc2ccccc2O)c1 [Compound 58a, N-(2-hydroxy)-3-nitro-phenylbenzenesulfonamide]
- CC50 [4]: 215 µM
- EC50 [6]: 204 µM
- pEC50 [1]: 4.69
- CC50 at 48 h ([11]; DENV CC50, Huh7 cells, DENV experiment): 99.4 µM
- CC50 at 48 h ([11]; WNV CC50, Huh7 cells, WNV experiment): 60.9 µM
- CC50 [9]: > 50 µM
- pIC50 [2]: 6.43
- pEC50 [10]: 5.00

Structure (SMILES): CCCCn1nnc(-c2ccc(NC(=O)Nc3ccccc3C(F)(F)F)cc2)n1 [Compound 51, 1-(4-(2-butyl-2H-tetrazol-5-yl)phenyl)-3-(2-(trifluoromethyl)phenyl)urea]
- CC50 [4]: 6.7 µM
- EC50 [6]: 0.6 µM
- pEC50 [1]: 5.26
- Normalized % infected cells [8]: 60%
- effect on EBOV replication, in words [8]: able to affect EBOV replication
- pIC50 [2]: 6.10

Structure (SMILES): CCCCc1nnc(-c2ccc(NC(=O)Nc3ccccc3C(F)(F)F)cc2)o1 [Compound 112, 1-(4-(5-butyl-1,3,4-oxadiazol-2-yl)phenyl)-3-(2-(trifluoromethyl)phenyl)urea]
- pEC50 [1]: 5.26
- pIC50 [2]: 6.00

Structure (SMILES): CCCCc1nc(-c2cccc(S(=O)(=O)Nc3ccccc3C(F)(F)F)c2)no1 [Compound 134, 3-(5-butyl-1,2,4-oxadiazol-3-yl)-N-(2-(trifluoromethyl)phenyl)benzenesulfonamide]
- pEC50 [1]: 5.51
- pIC50 [2]: 6.00

Structure (SMILES): CCCCc1nc(-c2ccc(NC(=O)Nc3ccccc3C(F)(F)F)cc2)no1 [Compound 106, 1-(4-(5-butyl-1,2,4-oxadiazol-3-yl)phenyl)-3-(2-(trifluoromethyl)phenyl)urea]
- pEC50 [1]: 5.66
- pIC50 [2]: 7.00

Structure (SMILES): CC(C)CCc1cn(-c2ccc(NC(=O)Nc3cccc(F)c3)cc2)nn1 [Compound 55b, 1-(3-fluorophenyl)-3-(4-(4-isopentyl-1H-1,2,3-triazol-1-yl)phenyl)urea]
- CC50 [4]: 183 µM
- activity against HCV, in words [6]: best activity
- EC50 [6]: 0.2 µM
- pEC50 [1]: 5.74
- DDX3 helicase activity compared with EI01D ([7]; in words): approximately ten-fold more active
- IC50 [7]: 0.2 µM

Structure (SMILES): CC(C)CCc1cn(-c2ccc(NC(=O)Nc3cccc4cnccc34)cc2)nn1 [Compound 55f, 1-(4-(4-isopentyl-1H-1,2,3-triazol-1-yl)phenyl)-3-(isoquinolin-5-yl)urea]
- CC50 [4]: > 312 µM
- EC50 [6]: 0.9 µM
- CC50 [9]: > 50 µM
- pIC50 [2]: 6.30
- pEC50 [10]: 4.48

Structure (SMILES): CCCCc1cn(-c2ccc(NC(=O)Nc3cc(OC4CCCC4)ccc3C)cc2)nn1 [Compound 55h, 1-(4-(4-butyl-1H-1,2,3-triazol-1-yl)phenyl)-3-(5-(cyclopentyloxy)-2-methylphenyl)urea]
- pEC50 [1]: 4.79
- pIC50 [2]: 7.00

Structure (SMILES): CC(C)CCc1cn(-c2ccc(NC(=O)Nc3ccccc3C(F)(F)F)cn2)nn1 [Compound 86, 1-(6-(4-isopentyl-1H-1,2,3-triazol-1-yl)pyridin-3-yl)-3-(2-(trifluoromethyl)phenyl)urea]
- pEC50 [1]: 5.52
- pIC50 [2]: 6.00

Structure (SMILES): CCCCn1nnc(-c2ccc(NC(=O)Nc3ccccc3C)cc2)n1 [Compound 49, 1-(4-(2-butyl-2H-tetrazol-5-yl)phenyl)-3-(o-tolyl)urea]
- Papp at 5 h, 0.5 mM [12]: 7.57 ×10⁻⁶ cm/s
- PAMPA membrane retention (RM %) [12]: 24.8%
- pEC50 [3]: 5.02
- CC50 [4]: 11.2 µM
- CC50 at 24 h [5]: > 1000 µM
- CC50 at 48 h [5]: > 1000 µM
- CC50 at 72 h [5]: > 1000 µM
- EC50 [6]: 7.16 µM
- pEC50 [1]: 5.28
- solubility [13, 15]: < 0.00316 µM
- solubility [13, 16]: < 0.001 µg/mL
- CC50 [9]: > 50 µM
- pIC50 [2]: 5.31
- pEC50 [10]: 5.15
- Metabolic stability (Sability %) [14]: 95.6%

Structure (SMILES): CCCCc1cc(-c2ccc(NC(=O)Nc3ccccc3C(F)(F)F)cc2)no1 [Compound 102, 1-(4-(5-butylisoxazol-3-yl)phenyl)-3-(2-(trifluoromethyl)phenyl)urea]
- pEC50 [1]: 4.14

Structure (SMILES): CCOCc1cn(-c2ccc(NC(=O)Nc3ccccc3C)cc2)nn1 [Compound 20e]
- CC50 [4]: 51.8 µM
- EC50 [6]: 8.55 µM
- CC50 [9]: > 50 µM
- pIC50 [2]: 6.03
- pEC50 [10]: 4.60

Structure (SMILES): CCCCc1cn(-c2ccc(NC(=O)Nc3ccccc3C(F)(F)F)cc2F)nn1 [Compound 81, 1-(4-(4-butyl-1H-1,2,3-triazol-1-yl)-3-fluorophenyl)-3-(2-(trifluoromethyl)phenyl)urea]
- Papp at 5 h, 0.5 mM [12]: 7.22 ×10⁻⁶ cm/s
- PAMPA membrane retention (RM %) [12]: 30.4%
- CC50 [4]: 74.2 µM
- EC50 [6]: 1.99 µM
- solubility [13, 15]: 0.398 µM
- solubility [13, 16]: 80.1 µg/mL
- pIC50 [2]: 6.00
- Metabolic stability (Sability %) [14]: 94%

Structure (SMILES): CCOCc1cn(-c2ccc(NC(=O)Nc3cccc(F)c3)cc2)nn1 [Compound 55o, 1-(4-(4-(ethoxymethyl)-1H-1,2,3-triazol-1-yl)phenyl)-3-(3-fluorophenyl)urea]
- pEC50 [1]: 4.67

Structure (SMILES): CCOCc1cn(-c2ccc(NC(=O)Nc3cc(C(C)C)ccc3C)cc2)nn1 [Compound 55e, 1-(4-(4-(ethoxymethyl)-1H-1,2,3-triazol-1-yl)phenyl)-3-(5-isopropyl-2-methylphenyl) urea]
- CC50 [4]: 245 µM
- EC50 [6]: 1 µM
- CC50 [9]: > 50 µM
- pIC50 [2]: 6.05
- pEC50 [10]: 5.48
